Key:
Cyclin D1/CDK4 = Cyclin D1/CDK4 (Homo sapiens, UniProt P11802); experiment: CDK4 kinase inhibition, FlashPlate phosphorylation of peptide substrate; format: biochemical; conditions: purified enzyme, 2 μM ATP, room temperature
Method: (§1) The cytostatic activities were determined by using purified enzymes in 384-well microtiter plates (coated FlashPlates, NEN Life Science). The enzyme activities were determined by means of phosphorylation of specific peptide substrates. A klainetin dilution series prepared beforehand, with concentrations of 100, 50, 25, 12.5, 6.25, 3.125, 1.5625, 0.7813, 0.3906, 0.195, 0.094, 0.047 and 0 μM, were pipetted into the wells in the appropriate order. The reaction mixture (radiolabeled ATP, buffer solution pH 7.4 and enzyme solutions) was then added followed by incubation at room temperature for 1 h.
Description of CDK4 reaction mixture:
Kinase buffer: 50 mM HEPES, 10 mM MgCl2, 2.5 mM EGTA pH8.0, 10 mM β-glycerol phosphate, 1 mM orthovanadate, 1 mM sodium fluoride, and 1 mM DTT
Biotinylated peptide substrate for FlashPlate coating (1 mg/ml solution in PBS buffer)
ATP solution: 100 μCi/ml 33P-γ-ATP and 10 μM ATP
Cyclin D1/CDK4 enzyme solution: 100 mg/ml in kinase buffer
Wash solution: 3% phosphoric acid
30 μl of diluted klainetin solution, 20 μl of ATP/enzyme solution (final conc. 1 μCi 33P-γ-ATP, 2 μM ATP and 1 μg of enzyme) […]
(§2) The activity of the kinases (CDK4 or KDR) was meaured by incorporation of radioactive phosphate from ATP into the substrate and the inhibitory action of the klainetins (IC50) was calculated.

CDK2 = CDK2 (Homo sapiens, UniProt P24941); experiment: CDK2 kinase inhibition (IC50); format: biochemical; conditions: purified enzyme
KDR = KDR (Homo sapiens, UniProt P35968); experiment: KDR kinase inhibition, phosphorylation of PLCγ1 peptide substrate; format: biochemical; conditions: purified enzyme, 5 μM ATP, room temperature 1 h
Chain of KDR (P35968 20-1356, species assumed): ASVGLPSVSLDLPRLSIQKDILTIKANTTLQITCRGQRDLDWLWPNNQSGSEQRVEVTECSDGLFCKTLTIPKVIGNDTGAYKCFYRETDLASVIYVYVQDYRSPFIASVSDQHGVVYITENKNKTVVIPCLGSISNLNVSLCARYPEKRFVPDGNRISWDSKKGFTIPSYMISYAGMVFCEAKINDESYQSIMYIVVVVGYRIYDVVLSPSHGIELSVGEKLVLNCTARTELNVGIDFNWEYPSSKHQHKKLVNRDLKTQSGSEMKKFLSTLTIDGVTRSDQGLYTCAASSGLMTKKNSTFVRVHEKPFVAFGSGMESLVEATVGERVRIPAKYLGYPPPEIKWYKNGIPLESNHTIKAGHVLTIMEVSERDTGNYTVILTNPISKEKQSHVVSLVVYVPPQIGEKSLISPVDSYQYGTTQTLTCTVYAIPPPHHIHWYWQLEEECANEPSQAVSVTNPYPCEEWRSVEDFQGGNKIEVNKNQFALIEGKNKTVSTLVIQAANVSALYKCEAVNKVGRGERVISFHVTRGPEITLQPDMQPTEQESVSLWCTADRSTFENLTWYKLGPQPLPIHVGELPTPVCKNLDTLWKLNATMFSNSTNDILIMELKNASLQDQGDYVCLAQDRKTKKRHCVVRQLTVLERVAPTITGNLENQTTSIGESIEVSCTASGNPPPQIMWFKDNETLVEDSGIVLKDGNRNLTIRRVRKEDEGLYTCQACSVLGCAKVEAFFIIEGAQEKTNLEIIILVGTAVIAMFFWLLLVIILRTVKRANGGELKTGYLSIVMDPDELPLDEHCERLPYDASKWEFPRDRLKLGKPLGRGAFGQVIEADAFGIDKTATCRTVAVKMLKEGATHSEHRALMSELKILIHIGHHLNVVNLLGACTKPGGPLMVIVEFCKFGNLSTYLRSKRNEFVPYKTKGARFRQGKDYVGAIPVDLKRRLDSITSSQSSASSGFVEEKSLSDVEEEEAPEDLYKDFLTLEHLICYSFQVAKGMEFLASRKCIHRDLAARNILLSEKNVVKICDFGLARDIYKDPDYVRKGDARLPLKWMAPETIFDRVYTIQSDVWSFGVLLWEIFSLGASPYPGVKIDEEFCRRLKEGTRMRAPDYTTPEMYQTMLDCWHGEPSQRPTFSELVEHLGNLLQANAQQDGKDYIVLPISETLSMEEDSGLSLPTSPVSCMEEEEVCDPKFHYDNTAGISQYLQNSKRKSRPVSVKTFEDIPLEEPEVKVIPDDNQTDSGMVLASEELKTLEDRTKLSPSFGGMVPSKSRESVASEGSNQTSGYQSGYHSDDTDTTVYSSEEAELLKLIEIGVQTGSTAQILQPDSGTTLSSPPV
Method: as §1
Description of KDR reaction mixture:
Kinase buffer: 50 mM MOPS, pH7.4, 10 mM MgCl2, 2 mM DTT, 2.5 mM EGTA, 10 mM β-glycerol phosphate, 1 mM orthovanadate, and 1 mM sodium fluoride
ATP solution: 25 μCi/ml 33P-γ-ATP und 12.5 μM ATP
KDR enzyme solution: 3.5 μg/ml in kinase buffer
Wash solution: PBS (without Mg^2+, Ca^2+)
10 μl diluted klainetin solution
20 μl of enzyme solution (3.5 μg/ml; 70 ng/well)
20 μl of ATP solution (final concentration 0.5 μCi and 5 μM ATP/well)
Incubation at room temperature for 1 h, followed by washing 3× with 75 μl of wash solution and measurement in MicroBeta Counter (Wallac) for 30 sec.
as §2

[1] = Solubility (characterization); format: physicochemical
[2] = Stability (characterization); format: physicochemical

Chain of Cyclin D1/CDK4 (P11802 whole entry, species assumed): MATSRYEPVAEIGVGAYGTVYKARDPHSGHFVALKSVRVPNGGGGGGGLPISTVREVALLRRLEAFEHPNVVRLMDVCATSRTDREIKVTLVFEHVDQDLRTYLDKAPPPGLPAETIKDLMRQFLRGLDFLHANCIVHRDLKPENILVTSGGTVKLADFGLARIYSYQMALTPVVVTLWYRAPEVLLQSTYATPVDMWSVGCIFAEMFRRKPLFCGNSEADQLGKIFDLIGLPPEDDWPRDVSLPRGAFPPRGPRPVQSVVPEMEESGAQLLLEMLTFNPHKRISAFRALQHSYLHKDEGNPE
Chain of Cyclin D1/CDK4 (P24385 whole entry partner, species assumed): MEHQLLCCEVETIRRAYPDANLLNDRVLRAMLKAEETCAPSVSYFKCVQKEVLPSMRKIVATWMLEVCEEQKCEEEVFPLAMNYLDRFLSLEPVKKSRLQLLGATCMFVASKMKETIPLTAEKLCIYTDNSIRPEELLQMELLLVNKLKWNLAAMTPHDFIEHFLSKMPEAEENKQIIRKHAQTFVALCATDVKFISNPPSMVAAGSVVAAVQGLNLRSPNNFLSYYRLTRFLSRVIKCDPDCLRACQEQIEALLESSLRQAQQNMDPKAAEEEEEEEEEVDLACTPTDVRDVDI

Compound	IC50 (Cyclin D1/CDK4) [µM]	IC50 (CDK2) [µM]	IC50 (KDR) [µM]	solubility in polar organic solvents [1]	solubility in water [1]	stability in the alkaline and strongly acidic range ([2]; alkaline and strongly acidic range)	stability in a neutral and mildly acidic environment [2]	stability in the alkaline range ([2]; alkaline range)
COc1c(Cc2cccc(O)c2O)c(O)cc2c1C(=O)CC(c1ccccc1)O2 (centres unmarked) [Klainetin A, klainetin A]	2.09	21.5	6.96	soluble	only slightly soluble	unstable	stable	–
COc1cc(O)c(Cc2cccc(O)c2O)c(O)c1C(=O)/C=C/c1ccccc1 [Klainetin B, klainetin B]	1.14	6.04	6.48	soluble	only slightly soluble	–	stable	unstable

Source: patent US6579903B2, “Klainetins and their derivatives, method for their preparation and use thereof” (Aventis Pharma Deutschland GmbH, priority 2000, dated 2003)
